Laboratory results published in US9416115B2, “Fused heterocyclic compounds as ion channel modulators” (Gilead Sciences, Inc., priority 2013, dated 2016).

Biological target: T1, wild-type human cardiac sodium channel, hNav1.5 (Homo sapiens, UniProt Q14524)
Test: Peak INa screening assay (tonic block and use-dependent block)
Format: cell-based
Settings: tonic block of Peak INa, 0.1 Hz, holding -100 mV, read-out: Peak TB 3 uM
Method: (§1) The cardiac late sodium current (Late INa) and peak sodium current (Peak INa) assays are performed on an automated electrophysiology platform, QPatch 16X or QPatch HT (Sophion Bioscience, Copenhagen, Denmark) using the whole cell patch clamp technique to measure currents through the cell membrane. The assay uses an HEK293 (human embryonic kidney) cell line heterologously expressing the wild-type human cardiac sodium channel, hNav1.5, purchased from Millipore (Billerica, Mass.). No beta subunits were coexpressed with the Na channel alpha subunit. Cells are maintained with standard tissue culture procedures and stable channel expression is maintained with 400 μg/mL Geneticin in the culture medium. Experiments are carried out at 23-25° C.
(§2) For both the Late INa and Peak INa assays, series resistance compensation is set to 100% and series resistance and whole-cell compensation are performed automatically. Currents are digitized at 25 kHz and low-pass filtered at 5 kHz and stored in the Sophion Bioscience Oracle database (Sophion Bioscience, Copenhagen, Denmark). Analysis is performed using QPatch Assay software and data are compiled in Excel 2010 (Microsoft, Seattle, Wash., U.S.A.).
(§3) Compound stocks are routinely made by the Gilead Sample Bank in vials to 10 mM in dimethyl sulfoxide (DMSO). In some cases, when compounds are not soluble in DMSO, they are made in 100% ethanol. Stocks are sonicated as necessary. The extracellular solution for screening Late INa is composed of: 140 mM NaCl, 4 mM KCl, 1.8 mM CaCl2, 1 mM MgCl2, 10 mM HEPES and 10 mM Dextrose with pH adjusted to 7.35 using NaOH. The intracellular solution contains: 105 mM CsF, 20 mM CsCl, 10NaF, 2 mM EGTA, 10 mM HEPES and 10 mM Dextrose with pH adjusted to 7.35 with CsOH. Compounds are diluted in extracellular solution using a MicroLab Nimbus (Hamilton Robotics, Reno, Nev.) to between 0.3 and 3 μM in glass vials and transferred to glass well plates before robotic addition to the cells. The 0 mM Na extracellular solution (0Na-ECF) used at the end of each experiment for the Late INa and Peak INa assays to measure baseline current contains: 140 Choline-Cl; 4 mM KCl, 1.8 mM CaCl2; 1 mM MgCl2; 10 mM HEPES and 10 mM Dextrose with pH was adjusted to 7.35 with CsOH.
Compounds were evaluated for their effect Nav1.5 Peak INa. It is contemplated that the compounds of Formula I avoid significant block of peak INa. Since the peak INa in the cells used herein can be very large, introducing artifacts in the recording, the concentration of Na^+ in the bath can be reduced to 40 mM by isosmotic replacement of Na^+ with Choline (see below).
Tonic Block (TB) of Peak INa was measured using a voltage step to −20 mV from a holding potential of −100 mV at a low stimulation frequency of 0.1 Hz. Use-Dependent Block (UDB) of Peak INa was measured during pulse number 50 of a pulse train (−20 mV, 20 ms, 50 pulses, 3 Hz) from a holding potential of −100 mV.
The extracellular solution for screening Peak INa is composed of: 40 mM NaCl, 100 mM Choline-Cl, 4 mM KCl, 1.8 mM CaCl2, 1 mM MgCl2 10 mM HEPES and 10 mM Dextrose with pH adjusted to 7.35 using NaOH. The intracellular solution used for the Peak INa assay is the same as outlined for the Late INa assay (see above).
After establishing the whole cell recording configuration, channels were stimulated to open with low frequency (0.1 Hz) so that the recording can be monitored and the extent to which the recording has stabilized can be assessed.
The test compound is then applied at 1 or 3 μM and was added 2 times at 60 second intervals. After the second compound addition, a 200 second wait period was imposed to allow for equilibration. Voltage protocols for TB and UDB are were performed in the absence and presence of compound and TB and UDB are calculated with respect to the compound free condition. Both TB and UDB were analyzed by incorporating rundown correction for the peak INa.

T1 sequence (Q14524 whole entry): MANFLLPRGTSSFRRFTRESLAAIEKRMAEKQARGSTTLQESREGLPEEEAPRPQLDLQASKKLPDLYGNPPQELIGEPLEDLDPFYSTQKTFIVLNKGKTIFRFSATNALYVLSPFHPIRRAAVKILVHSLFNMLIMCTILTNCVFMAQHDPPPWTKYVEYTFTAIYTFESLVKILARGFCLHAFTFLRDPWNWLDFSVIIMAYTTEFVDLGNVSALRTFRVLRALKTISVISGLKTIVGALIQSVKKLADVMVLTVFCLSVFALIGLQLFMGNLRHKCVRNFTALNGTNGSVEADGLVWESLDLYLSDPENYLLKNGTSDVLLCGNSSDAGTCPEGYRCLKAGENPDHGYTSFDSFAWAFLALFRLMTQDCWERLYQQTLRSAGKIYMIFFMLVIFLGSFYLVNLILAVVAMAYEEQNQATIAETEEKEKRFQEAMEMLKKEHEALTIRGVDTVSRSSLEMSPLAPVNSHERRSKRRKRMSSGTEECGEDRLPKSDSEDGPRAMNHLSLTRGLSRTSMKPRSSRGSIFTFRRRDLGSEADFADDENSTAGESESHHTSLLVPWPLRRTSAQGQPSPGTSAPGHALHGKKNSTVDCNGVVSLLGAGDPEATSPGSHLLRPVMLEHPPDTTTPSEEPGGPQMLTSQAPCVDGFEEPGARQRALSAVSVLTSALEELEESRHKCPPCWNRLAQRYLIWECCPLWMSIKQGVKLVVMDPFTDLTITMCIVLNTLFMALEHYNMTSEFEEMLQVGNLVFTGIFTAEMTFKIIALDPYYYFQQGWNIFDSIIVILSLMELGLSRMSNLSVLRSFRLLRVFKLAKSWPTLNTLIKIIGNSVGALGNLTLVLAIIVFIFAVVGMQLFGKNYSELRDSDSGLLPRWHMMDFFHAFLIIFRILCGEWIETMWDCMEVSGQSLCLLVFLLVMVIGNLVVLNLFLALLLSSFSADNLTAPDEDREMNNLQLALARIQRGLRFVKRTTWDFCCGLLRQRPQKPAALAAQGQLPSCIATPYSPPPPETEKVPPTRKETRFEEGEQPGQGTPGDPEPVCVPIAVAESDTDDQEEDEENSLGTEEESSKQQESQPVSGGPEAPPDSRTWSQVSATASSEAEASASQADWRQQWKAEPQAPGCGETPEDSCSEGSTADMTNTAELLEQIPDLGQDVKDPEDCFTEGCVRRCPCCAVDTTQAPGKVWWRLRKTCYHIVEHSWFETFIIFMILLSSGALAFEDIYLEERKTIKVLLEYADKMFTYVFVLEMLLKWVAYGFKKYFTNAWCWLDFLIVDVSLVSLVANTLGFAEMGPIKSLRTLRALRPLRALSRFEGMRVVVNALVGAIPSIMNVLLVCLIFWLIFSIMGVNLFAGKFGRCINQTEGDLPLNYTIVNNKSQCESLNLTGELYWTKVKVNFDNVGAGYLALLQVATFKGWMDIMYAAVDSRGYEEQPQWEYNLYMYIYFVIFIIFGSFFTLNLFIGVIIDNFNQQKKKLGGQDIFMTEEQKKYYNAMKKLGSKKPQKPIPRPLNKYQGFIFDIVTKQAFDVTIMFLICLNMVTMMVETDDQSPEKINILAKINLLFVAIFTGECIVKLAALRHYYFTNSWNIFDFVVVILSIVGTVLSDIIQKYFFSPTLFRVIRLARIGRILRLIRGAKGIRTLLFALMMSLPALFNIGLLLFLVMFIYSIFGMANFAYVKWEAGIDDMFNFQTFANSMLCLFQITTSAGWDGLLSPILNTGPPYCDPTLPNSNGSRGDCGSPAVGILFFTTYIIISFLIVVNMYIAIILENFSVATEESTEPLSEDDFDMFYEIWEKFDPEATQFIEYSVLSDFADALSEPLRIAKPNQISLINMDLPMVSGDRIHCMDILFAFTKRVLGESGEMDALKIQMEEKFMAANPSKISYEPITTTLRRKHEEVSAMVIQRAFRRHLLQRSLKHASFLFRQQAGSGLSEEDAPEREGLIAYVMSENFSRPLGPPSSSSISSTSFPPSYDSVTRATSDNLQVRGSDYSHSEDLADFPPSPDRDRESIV

Structure (SMILES) | inhibition at 3 µM [%]
Fc1cc(OC(F)(F)F)ccc1-c1ccc2onc(OCc3ncccn3)c2c1 [Example 2, 5-(2-fluoro-4-(trifluoromethoxy)phenyl)-3-(pyrimidin-2-ylmethoxy)benzo[d]isoxazole] | 66.1

Same assay, conditions: use-dependent block of Peak INa, 3 Hz, pulse 50, read-out: Peak UDB 3 Hz 3 uM

Structure (SMILES) | inhibition at 3 µM [%]
Fc1cc(OC(F)(F)F)ccc1-c1ccc2onc(OCc3ncccn3)c2c1 [Example 2, 5-(2-fluoro-4-(trifluoromethoxy)phenyl)-3-(pyrimidin-2-ylmethoxy)benzo[d]isoxazole] | 27.9

Biological target: T1, wild-type human cardiac sodium channel, hNav1.5
Test: Late INa screening assay (QPatch whole cell patch clamp, Tefluthrin-induced late current)
Format: cell-based
Settings: 1 uM; HEK293 hNav1.5; percent block of late INa
Method: as §1, §2, §3
For the Late INa assay, sodium channels are activated every 10 seconds (0.1 Hz) by depolarizing the cell membrane to −20 mV for 250 milliseconds (ms) from a holding potential of −120 mV.
Compounds were tested to determine their activity in blocking the late sodium current. Late INa was generated by adding 10 μM Tefluthrin (pyrethroid) to the extracellular solution. For the purposes of the screening, Late INa is defined as the mean current between […] during the voltage step to −20 mV. After establishing the whole cell recording configuration, Late INa activator is added to each well 4 times over a 15 minute period so that the late component of the Na current reaches a stable value. Compounds were then added (typically at 0.3 or 1 μM), in the presence of the Late Na^+ activator, with 3 additions over the course of 5 minutes. Measurements were made at the end of exposure to the third compound addition and values were normalized to the current level when all Na^+ was removed from the extracellular solution after two additions of 0Na-ECF.
Results are reported as percent block of late INa and results were analyzed by incorporating rundown correction for the Late INa.

Structure (SMILES) | inhibition at 1 µM [%]
Fc1cc(OC(F)(F)F)ccc1-c1ccc2onc(OCc3ncccn3)c2c1 [Example 2, 5-(2-fluoro-4-(trifluoromethoxy)phenyl)-3-(pyrimidin-2-ylmethoxy)benzo[d]isoxazole] | 54.6
COc1cc2onc(OCc3ncccn3)c2cc1-c1ccc(OC(F)(F)F)cc1 [Example 11, 6-methoxy-3-(pyrimidin-2-ylmethoxy)-5-(4-(trifluoromethoxy)phenyl)benzo[d]isoxazole] | 30
Cc1cc(-c2cccc(OC(F)(F)F)c2)cc2c(OCc3ncccn3)noc12 [Example 19, 7-methyl-3-(pyrimidin-2-ylmethoxy)-5-(3-(trifluoromethoxy)phenyl)benzo[d]isoxazole] | 27.5
c1cnc(COc2noc3ccc(-c4ccc(C5CC5)nc4)cc23)nc1 [Example 20, 5-(6-cyclopropylpyridin-3-yl)-3-(pyrimidin-2-ylmethoxy)benzo[d]isoxazole] | 28.8
Cc1cc(-c2cc3c(OCc4ncccn4)noc3cc2F)ccc1OC(F)(F)F [Example 32, 6-fluoro-5-(3-methyl-4-(trifluoromethoxy)phenyl)-3-(pyrimidin-2-ylmethoxy)benzo[d]isoxazole] | 28.8
Cc1cc(OC(F)(F)F)ccc1-c1cc2c(OCc3ncccn3)noc2cc1F [Example 34, 6-fluoro-5-(2-methyl-4-(trifluoromethoxy)phenyl)-3-(pyrimidin-2-ylmethoxy)benzo[d]isoxazole] | 21
Cn1cnc(COc2noc3ccc(-c4ccc(OC(F)(F)F)cc4)cc23)c1 [Example 43, 3-((1-methyl-1H-imidazol-4-yl)methoxy)-5-(4-(trifluoromethoxy)phenyl)benzo[d]isoxazole] | 27.1
Cc1nc(COc2noc3ccc(-c4ccc(OC(F)(F)F)cc4)cc23)c(C)o1 [Example 52, 3-((2,5-dimethyloxazol-4-yl)methoxy)-5-(4-(trifluoromethoxy)phenyl)benzo[d]isoxazole] | 24.3
N#CCC1(COc2noc3ccc(-c4ccc(OC(F)(F)F)cc4)cc23)CC1 [Example 54, 2-(1-(((5-(4-(trifluoromethoxy)phenyl)benzo[d]isoxazol-3-yl)oxy)methyl)cyclopropyl)acetonitrile] | 29.2
O=C1CC[C@@H](COc2noc3ccc(-c4ccc(OC(F)(F)F)cc4)cc23)N1 [Example 62, (S)-5-(((5-(4-(trifluoromethoxy)phenyl)benzo[d]isoxazol-3-yl)oxy)methyl)pyrrolidin-2-one] | 28.4
FC(F)(F)Oc1ccc(-c2ccc3onc(OCc4cnn(-c5ccccn5)c4)c3c2)cc1 [Example 65, 3-((1-(pyridin-2-yl)-1H-pyrazol-4-yl)methoxy)-5-(4-(trifluoromethoxy)phenyl)benzo[d]isoxazole] | 27
FC(F)(F)Oc1ccc(-c2ccc3onc(OCCc4ncc[nH]4)c3c2)cc1 [Example 66, 3-(2-(1H-imidazol-2-yl)ethoxy)-5-(4-(trifluoromethoxy)phenyl)benzo[d]isoxazole] | 21.9
Cc1cc(C)n(CCOc2noc3ccc(-c4ccc(OC(F)(F)F)cc4)cc23)n1 [Example 69, 3-(2-(3,5-dimethyl-1H-pyrazol-1-yl)ethoxy)-5-(4-(trifluoromethoxy)phenyl)benzo[d]isoxazole] | 29.6
FC(F)(F)Oc1ccc(-c2ccc3onc(OCc4nccc(N5CCOCC5)n4)c3c2)cc1 [Example 70, 3-((4-morpholinopyrimidin-2-yl)methoxy)-5-(4-(trifluoromethoxy)phenyl)benzo[d]isoxazole] | 25.5
FC(F)(F)Oc1ccc(-c2ccc3onc(OCc4cc5ccccc5cn4)c3c2)cc1 [Example 82, 3-(isoquinolin-3-ylmethoxy)-5-(4-(trifluoromethoxy)phenyl)benzo[d]isoxazole] | 28.1
FC(F)(F)Oc1ccc(-c2ccc3onc(OCc4c[nH]nn4)c3c2)cc1 [Example 83, 3-((1H-1,2,3-triazol-4-yl)methoxy)-5-(4-(trifluoromethoxy)phenyl)benzo[d]isoxazole] | 23.7
Fc1cc(-c2ccc(OC(F)(F)F)cc2)cc2c(OCCn3cncn3)noc12 [Example 84, 3-(2-(1H-1,2,4-triazol-1-yl)ethoxy)-7-fluoro-5-(4-(trifluoromethoxy)phenyl)benzo[d]isoxazole] | 23.6
O=S1(=O)CCN(CCOc2noc3ccc(-c4ccc(OC(F)(F)F)cc4)cc23)CC1 [Example 85, 4-(2-((5-(4-(trifluoromethoxy)phenyl)benzo[d]isoxazol-3-yl)oxy)ethyl)thiomorpholine 1,1-dioxide] | 22.5
FC(F)(F)Oc1ccc(-c2ccc3onc(OCc4nccc(C(F)(F)F)n4)c3c2)cc1 [Example 86, 5-(4-(trifluoromethoxy)phenyl)-3-((4-(trifluoromethyl)pyrimidin-2-yl)methoxy)benzo[d]isoxazole] | 21.9
COc1ccnc(COc2noc3c(C)cc(-c4ccc(OC(F)(F)F)cc4)cc23)n1 [Example 90, 3-((4-methoxypyrimidin-2-yl)methoxy)-7-methyl-5-(4-(trifluoromethoxy)phenyl)benzo[d]isoxazole] | 20.9
Cc1cccc(COc2noc3c(C)cc(-c4ccc(OC(F)(F)F)cc4)cc23)n1 [Example 106, 7-methyl-3-((6-methylpyridin-2-yl)methoxy)-5-(4-(trifluoromethoxy)phenyl)benzo[d]isoxazole] | 28.3
CC(C)Nc1noc2ccc(-c3ccc(OC(F)(F)F)cc3)cc12 [Example 131, N-isopropyl-5-(4-(trifluoromethoxy)phenyl)benzo[d]isoxazol-3-amine] | 24.8
O=C1CC[C@H](CNc2noc3ccc(-c4ccc(OC(F)(F)F)cc4)cc23)N1 [Example 134, (R)-5-(((5-(4-(trifluoromethoxy)phenyl)benzo[d]isoxazol-3-yl)amino)methyl)pyrrolidin-2-one] | 21.1
Cc1nccn1-c1noc2ccc(-c3ccc(OC(F)(F)F)cc3)cc12 [Example 138, 3-(2-methyl-1H-imidazol-1-yl)-5-(4-(trifluoromethoxy)phenyl)benzo[d]isoxazole] | 29.8
